Key:
[1] = Estimated human dosimetry from mouse biodistribution study (MIRD)
Source text: Estimates were obtained from the organ residence times calculated from the mouse biodistribution data, shown in Table 1, using standard MIRD methodology.

MDA-MB-231 tumors = experiment: microPET imaging with [18F]12, MDA-MB-231 tumors; type: in vivo, mice; conditions: baseline, 60 minute dynamic scan
Protocol: This example illustrates the visualization of tumor tissue in microPET in mice. MDA-MB-436 human breast cancer xenograft tumors in immune-deficient mice were visualized by PET using [^18F]12.
Tumor-bearing mice were placed in an induction chamber containing ˜2% isoflurane/oxygen and then secured to a custom double bed for placement of tail vein catheters; anesthesia was maintained via nose-cone at ˜1% isoflurane/oxygen for the dynamic imaging procedure. The mice were injected with 150-200 μCi of [^18F]12 and scanned for 0-60 min using Focus 220 and Inveon PET/CT scanners. The standard uptake values (SUVs) were generated from manually drawn regions of interests for tumors and surrounding ‘background’ tissue. Visualization of specific uptake was determined by comparison of baseline scans with images acquired by tracer injection 20 minutes after pre-treatment with the blocking agents olaparib (50 mg/kg, IP) or 12 (1 mg/kg, IP).
This example illustrates uptake of Compound 12 ([^18F]WC-4-138) in mice. Mature female athymic nude mice (Charles River Laboratories) were implanted with 10^6 SCC1 cells or 10^7 MDA-MB-231 cells into the mammary fat pads. Mice bearing SCC1 tumors were imaged at 5 weeks and mice bearing MDA-MB-231 cells were imaged at 2.5 weeks after implant. Mice were anesthetized with 2% isoflurane/oxygen and maintained at 1% isoflurane/oxygen via nose cone throughout the imaging procedure. Whole animal microCT images were acquired on an Inveon PET/CT scanner. The mice were injected via tail vein with 11.36±0.5 MBq (307±13 μCi) of [^18F]WC(4)-138 and underwent a 60 minute dynamic scan using Focus 220 or Inveon PET/CT scanners. The microPET and microCT images were coregistered using Integrated Research Workflow software (Siemens). Regions of interest were drawn over tumors to determine time activity curves. For drug treatment studies, animals reached intraperitoneal injections of 50 mg/kg olaparib or iniparib 30 minutes before imaging. Mice were imaged at baseline, or 30 minutes after IP injection of olaparib or iniparib. Arrows indicate location of tumors as identified on CT.
In FIG. 8, mice were imaged at baseline, or 30 minutes after IP injection of olaparib or iniparib. (A) The percent of injected dose per ml was calculated for each MDA/MB-231 tumor at baseline or after drug treatment. […] Tracer uptake was unchanged in iniparib-treated mice (p=0.1098 as determined by a paired t test, n=6 tumors).

O=C1NCCn2c(-c3ccc(OCC[18F])cc3)nc3cccc1c32 [[^18F]12]
Estimated human dosimetry, Adrenals ([1]; Female): 0.052 rad/mCi
Estimated human dosimetry, Brain ([1]; Female): 0.022 rad/mCi
Estimated human dosimetry, Breasts ([1]; Female): 0.019 rad/mCi
Estimated human dosimetry, Effective Dose ([1]; Female): 0.057 rem/mCi
Estimated human dosimetry, Effective Dose Equivalent ([1]; Female): 0.075 rad/mCi
Estimated human dosimetry, Gallbladder Wall ([1]; Female): 0.033 rad/mCi
Estimated human dosimetry, Heart Wall ([1]; Female): 0.047 rad/mCi
Estimated human dosimetry, Kidneys ([1]; Female): 0.093 rad/mCi
Estimated human dosimetry, LLI Wall ([1]; Female): 0.036 rad/mCi
Estimated human dosimetry, Liver ([1]; Female): 0.065 rad/mCi
Estimated human dosimetry, Lungs ([1]; Female): 0.045 rad/mCi
Estimated human dosimetry, Muscle ([1]; Female): 0.035 rad/mCi
Estimated human dosimetry, Osteogenic Cells ([1]; Female): 0.203 rad/mCi
Estimated human dosimetry, Ovaries ([1]; Female): 0.045 rad/mCi
Estimated human dosimetry, Pancreas ([1]; Female): 0.064 rad/mCi
Estimated human dosimetry, Red Marrow ([1]; Female): 0.069 rad/mCi
Estimated human dosimetry, Skin ([1]; Female): 0.019 rad/mCi
Estimated human dosimetry, Small Intestine ([1]; Female): 0.030 rad/mCi
Estimated human dosimetry, Spleen ([1]; Female): 0.133 rad/mCi
Estimated human dosimetry, Stomach Wall ([1]; Female): 0.030 rad/mCi
Estimated human dosimetry, Thymus ([1]; Female): 0.026 rad/mCi
Estimated human dosimetry, Thyroid ([1]; Female): 0.038 rad/mCi
Estimated human dosimetry, Total Body ([1]; Female): 0.039 rad/mCi
Estimated human dosimetry, ULI Wall ([1]; Female): 0.031 rad/mCi
Estimated human dosimetry, Urinary Bladder Wall ([1]; Female): 0.301 rad/mCi
Estimated human dosimetry, Uterus ([1]; Female): 0.053 rad/mCi
Estimated human dosimetry, Adrenals ([1]; Male): 0.043 rad/mCi
Estimated human dosimetry, Brain ([1]; Male): 0.019 rad/mCi
Estimated human dosimetry, Effective Dose ([1]; Male): 0.047 rem/mCi
Estimated human dosimetry, Effective Dose Equivalent ([1]; Male): 0.062 rad/mCi
Estimated human dosimetry, Gallbladder Wall ([1]; Male): 0.028 rad/mCi
Estimated human dosimetry, Heart Wall ([1]; Male): 0.038 rad/mCi
Estimated human dosimetry, Kidneys ([1]; Male): 0.083 rad/mCi
Estimated human dosimetry, LLI Wall ([1]; Male): 0.029 rad/mCi
Estimated human dosimetry, Liver ([1]; Male): 0.050 rad/mCi
Estimated human dosimetry, Lungs ([1]; Male): 0.035 rad/mCi
Estimated human dosimetry, Muscle ([1]; Male): 0.026 rad/mCi
Estimated human dosimetry, Osteogenic Cells ([1]; Male): 0.155 rad/mCi
Estimated human dosimetry, Pancreas ([1]; Male): 0.055 rad/mCi
Estimated human dosimetry, Red Marrow ([1]; Male): 0.061 rad/mCi
Estimated human dosimetry, Skin ([1]; Male): 0.016 rad/mCi
Estimated human dosimetry, Small Intestine ([1]; Male): 0.026 rad/mCi
Estimated human dosimetry, Spleen ([1]; Male): 0.110 rad/mCi
Estimated human dosimetry, Stomach Wall ([1]; Male): 0.024 rad/mCi
Estimated human dosimetry, Testes ([1]; Male): 0.022 rad/mCi
Estimated human dosimetry, Thymus ([1]; Male): 0.020 rad/mCi
Estimated human dosimetry, Thyroid ([1]; Male): 0.033 rad/mCi
Estimated human dosimetry, Total Body ([1]; Male): 0.031 rad/mCi
Estimated human dosimetry, ULI Wall ([1]; Male): 0.025 rad/mCi
Estimated human dosimetry, Urinary Bladder Wall ([1]; Male): 0.220 rad/mCi
tracer uptake in MDA-MB-231 tumors (microPET images) (MDA-MB-231 tumors): abundantly taken up in tumors

From patent US9993570B2, “Radiolabeled tracers for poly (ADP-ribose) polymerase-1 (PARP-1), methods and uses therefor” (Washington University, priority 2014, dated 2018)
